Source: ChEMBL document CHEMBL1201862, “PubChem BioAssay data set” (2004)
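48-hour exposure; five concentrations; linearly interpolated endpoints. The concentration for 50% growth inhibition is given as GI50.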 The source made the active and inactive calls. Cut-off read from the data, not from the text of the source: active = GI50 up to about 1.1 µM and inactive = higher.

Key:
Test in all cases: DTP human tumour cell line panel, 48 h
BT-549 = system: BT-549
CCRF-CEM = system: CCRF-CEM
HOP-62 = system: HOP-62
HOP-92 = system: HOP-92
Hs-578T = system: Hs-578T
IGROV-1 = system: IGROV-1
M14 = system: M14
MDA-MB-231 = system: MDA-MB-231
NCI-H226 = system: NCI-H226
NCI-H460 = system: NCI-H460
OVCAR-3 = system: OVCAR-3
OVCAR-4 = system: OVCAR-4
PC-3 = system: PC-3
SF-268 = system: SF-268
SF-295 = system: SF-295
SK-MEL-28 = system: SK-MEL-28
SNB-75 = system: SNB-75
U-251 = system: U-251
UACC-257 = system: UACC-257
UACC-62 = system: UACC-62

Measured: GI50

O=C1C=C(NCCc2ccccc2)c2ccccc2C1=O
inactive: BT-549 2.23 µM | CCRF-CEM 12.3 µM | HOP-62 2.55 µM | HOP-92 12.5 µM | Hs-578T 2.08 µM | IGROV-1 7.28 µM | M14 1.59 µM | MDA-MB-231 5.86 µM | NCI-H226 2.06 µM | NCI-H460 1.57 µM | OVCAR-3 1.44 µM | OVCAR-4 3.93 µM | PC-3 5.25 µM | SF-268 7.24 µM | SF-295 1.98 µM | SK-MEL-28 1.87 µM | SNB-75 1.69 µM | U-251 4.75 µM | UACC-257 1.53 µM | UACC-62 1.79 µM

Cc1ccc(-c2c(C#N)c(-c3ccc(C)cc3)n(NS(=O)(=O)c3ccccc3)c(=O)c2C#N)cc1
inactive: BT-549 25.4 µM | CCRF-CEM 24.4 µM | HOP-62 49.2 µM | HOP-92 28.6 µM | Hs-578T > 100 µM | IGROV-1 44.5 µM | M14 40.6 µM | MDA-MB-231 > 100 µM | NCI-H226 > 100 µM | NCI-H460 40.9 µM | OVCAR-4 40.6 µM | PC-3 28.9 µM | SF-268 > 100 µM | SF-295 32.5 µM | SK-MEL-28 49.2 µM | SNB-75 > 100 µM | U-251 49.9 µM | UACC-257 86.1 µM | UACC-62 34.1 µM

Nc1c(Br)cc(-c2nc3ccccc3s2)cc1Br
inactive: BT-549 > 100 µM | CCRF-CEM > 100 µM | HOP-62 > 100 µM | HOP-92 > 100 µM | Hs-578T > 100 µM | IGROV-1 5.12 µM | M14 > 100 µM | MDA-MB-231 > 100 µM | NCI-H226 > 100 µM | NCI-H460 > 100 µM | OVCAR-3 > 100 µM | PC-3 > 100 µM | SF-268 > 100 µM | SF-295 > 100 µM | SK-MEL-28 > 100 µM | SNB-75 > 100 µM | U-251 > 100 µM | UACC-257 > 100 µM | UACC-62 > 100 µM

CCOC(=O)NC(Nc1cccc(C(F)(F)F)c1)(C(F)(F)F)C(F)(F)F
inactive: BT-549 > 100 µM | CCRF-CEM > 100 µM | HOP-62 > 100 µM | HOP-92 > 100 µM | Hs-578T > 100 µM | IGROV-1 > 100 µM | M14 > 100 µM | MDA-MB-231 > 100 µM | NCI-H226 > 100 µM | NCI-H460 > 100 µM | OVCAR-3 > 100 µM | PC-3 > 100 µM | SF-268 > 100 µM | SF-295 > 100 µM | SK-MEL-28 > 100 µM | SNB-75 > 100 µM | U-251 > 100 µM | UACC-257 > 100 µM | UACC-62 > 100 µM

CC(C)(Oc1ccc(Cl)cc1)C(=O)N(C(=O)N1CCN(c2ccccc2)CC1)c1ccccc1
inactive: BT-549 > 100 µM | CCRF-CEM 7.1 µM | HOP-62 > 100 µM | HOP-92 > 100 µM | Hs-578T > 100 µM | M14 45.7 µM | MDA-MB-231 > 100 µM | NCI-H226 8.09 µM | NCI-H460 3.75 µM | OVCAR-3 26.7 µM | OVCAR-4 8.49 µM | PC-3 4.78 µM | SF-268 > 100 µM | SF-295 33.2 µM | SK-MEL-28 > 100 µM | SNB-75 > 100 µM | U-251 6.21 µM | UACC-257 5.62 µM | UACC-62 5.83 µM

N=C(N)NCCCC(=O)O
inactive: BT-549 > 100 µM | CCRF-CEM > 100 µM | HOP-62 > 100 µM | HOP-92 > 100 µM | Hs-578T > 100 µM | IGROV-1 > 100 µM | M14 > 100 µM | MDA-MB-231 > 100 µM | NCI-H226 > 100 µM | NCI-H460 > 100 µM | OVCAR-3 > 100 µM | OVCAR-4 > 100 µM | PC-3 > 100 µM | SF-268 > 100 µM | SF-295 > 100 µM | SK-MEL-28 > 100 µM | SNB-75 > 100 µM | U-251 > 100 µM | UACC-62 > 100 µM

CC1(C)CC(=O)C(=CNc2nc(-c3cccc([N+](=O)[O-])c3)cs2)C(=O)C1
inactive: BT-549 18.7 µM | CCRF-CEM 2 µM | HOP-62 19.6 µM | HOP-92 17.3 µM | Hs-578T 18.9 µM | IGROV-1 17.6 µM | M14 15.8 µM | MDA-MB-231 18.5 µM | NCI-H226 15.3 µM | NCI-H460 14.7 µM | OVCAR-3 29 µM | OVCAR-4 27.5 µM | PC-3 24.8 µM | SF-268 15 µM | SF-295 37.2 µM | SNB-75 14.9 µM | U-251 19.6 µM | UACC-257 22.5 µM | UACC-62 16 µM
